Measured values from PubChem BioAssay AID328 (DTP/NCI, 2004).
Where “and” joins values, the source holds several entries; their conditions need not be identical. Equal values may be shown once. Inconclusive results and toxic doses are left out. The calls were made as follows: active = survival T/C of 150% or more; inactive = T/C below 125% in these data.

Tested on: BDF1 mice, P388 leukemia ip, median survival T/C
Assay: NCI In Vivo Anticancer Drug Screen. Data for tumor model P388 Leukemia (intraperitoneal) in B6D2F1 (BDF1) mice
Conditions: endpoint: median survival time, higher = longer survival
In short: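 Transplantable tumour in mice; compound vs vehicle dosing; survival scored; ratio of treated to control reported.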

[1] = dose: 50.0 mg/kg/injection, schedule: Q01DX009 (ip), vehicle: saline
[2] = dose: 100.0 mg/kg/injection, schedule: Q01DX009 (ip), vehicle: saline
[3] = dose: 100.0 mg/kg/injection, schedule: Q04DX003 (ip), vehicle: saline
[4] = dose: 200.0 mg/kg/injection, schedule: Q01DX009 (ip), vehicle: saline
[5] = dose: 200.0 mg/kg/injection, schedule: Q04DX003 (ip), vehicle: saline
[6] = dose: 400.0 mg/kg/injection, schedule: Q04DX003 (ip), vehicle: saline
[7] = dose: 12.5 mg/kg/injection, schedule: Q01DX009 (ip), vehicle: saline with Tween-80
[8] = dose: 25.0 mg/kg/injection, schedule: Q01DX009 (ip), vehicle: saline with Tween-80
[9] = dose: 50.0 mg/kg/injection, schedule: Q01DX009 (ip), vehicle: saline with Tween-80
[10] = dose: 100.0 mg/kg/injection, schedule: Q04DX003 (ip), vehicle: Klucel (hydroxypropylcellulose) (HPC)
[11] = dose: 200.0 mg/kg/injection, schedule: Q04DX003 (ip), vehicle: Klucel (hydroxypropylcellulose) (HPC)
[12] = dose: 100.0 mg/kg/injection, schedule: Q01DX009 (ip), vehicle: saline with Tween-80
[13] = dose: 100.0 mg/kg/injection, schedule: Q04DX003 (ip), vehicle: saline with Tween-80

Measured: T/C

CC(/C=C/c1ccccc1)=N\NC(=O)CN(C)C
inactive: [1] 94 % of control | [2] 97 % of control

COc1ccc(/C=C2\C(=O)C(c3ccccc3)N(c3ccccc3)C2=O)cc1 (configuration not stated)
inactive: dose: 400.0 mg/kg/injection, schedule: Q04DX002 (ip), vehicle: saline with Tween-80 88 % of control

CC(C)c1oc(=O)cc2c1[C@@H](O)[C@H]1OC(=O)[C@@]3(C)[C@@H](O)[C@H]4O[C@H]4[C@@]2(C)[C@@H]13
inactive: dose: 15.0 mg/kg/injection, schedule: Q04DX003 (ip), vehicle: saline with Tween-80 115 % of control | dose: 30.0 mg/kg/injection, schedule: Q01DX001 (ip), vehicle: saline with Tween-80 104 % of control | dose: 30.0 mg/kg/injection, schedule: Q04DX003 (ip), vehicle: saline with Tween-80 97 % of control

C=C(CC(=O)O)C(=O)O (tested in a mixture with another compound)
inactive: dose: 44.0 mg/kg/injection, schedule: Q01DX009 (ip), vehicle: saline 120 % of control

O=C1Cc2ccc3c(c2O1)C(=O)c1ccccc1C3=O
inactive: dose: 100.0 mg/kg/injection, schedule: Q04DX002 (ip), vehicle: saline with Tween-80 106 % of control | dose: 200.0 mg/kg/injection, schedule: Q04DX002 (ip), vehicle: saline with Tween-80 100 % of control

CC(Br)C(=O)NCC(=O)NCC(=O)O (configuration not stated)
inactive: [2] 108 % of control | [3] 108 % of control | [4] 91 % of control | [5] 91 % of control | [6] 87 % of control

CC1(c2cccs2)C(=O)N(Cl)C(=O)N1Cl (configuration not stated)
inactive: dose: 12.5 mg/kg/injection, schedule: Q04DX003 (ip), vehicle: saline 100 % of control | dose: 25.0 mg/kg/injection, schedule: Q04DX003 (ip), vehicle: saline 100 % of control | [1] 122 % of control | dose: 50.0 mg/kg/injection, schedule: Q04DX003 (ip), vehicle: saline 118 % of control | [2] 119 % of control | [3] 107 % of control and 109 % of control and 118 % of control | [4] 120 % of control | [5] 118 % of control

COc1ccc(/C=C(\C)[N+](=O)[O-])cc1OC
inactive: dose: 3.13 mg/kg/injection, schedule: Q01DX009 (ip), vehicle: other 116 % of control | dose: 6.25 mg/kg/injection, schedule: Q01DX009 (ip), vehicle: other 116 % of control | dose: 12.5 mg/kg/injection, schedule: Q01DX009 (ip), vehicle: other 110 % of control | dose: 25.0 mg/kg/injection, schedule: Q01DX009 (ip), vehicle: other 118 % of control

O=C(Nc1ccccc1)Oc1cccc(/C=N/Sc2ccccc2)c1
inactive: [7] 107 % of control | [8] 100 % of control | [9] 91 % of control

COc1ccc(C(=O)/C=C/c2ccc(OCc3ccccc3)c(OC)c2)cc1OC
inactive: dose: 50.0 mg/kg/injection, schedule: Q01DX009 (ip), vehicle: water 111 % of control | dose: 50.0 mg/kg/injection, schedule: Q04DX003 (ip), vehicle: water 101 % of control | dose: 100.0 mg/kg/injection, schedule: Q01DX009 (ip), vehicle: water 114 % of control | dose: 100.0 mg/kg/injection, schedule: Q04DX003 (ip), vehicle: water 94 % of control | dose: 200.0 mg/kg/injection, schedule: Q01DX009 (ip), vehicle: water 104 % of control | dose: 200.0 mg/kg/injection, schedule: Q04DX003 (ip), vehicle: water 102 % of control | dose: 400.0 mg/kg/injection, schedule: Q01DX009 (ip), vehicle: water 114 % of control | dose: 400.0 mg/kg/injection, schedule: Q04DX003 (ip), vehicle: water 100 % of control

CC(=O)C[P+](c1ccccc1)(c1ccccc1)c1ccccc1
inactive: dose: 100.0 mg/kg/injection, schedule: Q01DX001 (ip), vehicle: saline 109 % of control

CC(=N\O)/C(C)=N/O.CC(=N\O)/C(C)=N/O.CC1CC[N-]CC1.CC1CC[N-]CC1.CC1CC[N-]CC1.CC1CC[N-]CC1.[Cl][Rh][Cl].[Pt+2]
inactive: dose: 0.39 mg/kg/injection, schedule: Q01DX009 (ip), vehicle: water 110 % of control | dose: 0.78 mg/kg/injection, schedule: Q01DX009 (ip), vehicle: water 110 % of control | dose: 1.56 mg/kg/injection, schedule: Q01DX009 (ip), vehicle: water 98 % of control | dose: 6.25 mg/kg/injection, schedule: Q01DX009 (ip), vehicle: water 94 % of control | dose: 12.5 mg/kg/injection, schedule: Q01DX009 (ip), vehicle: water 99 % of control

COc1ccc(/C=C/NC=O)cc1
inactive: dose: 50.0 mg/kg/injection, schedule: Q04DX003 (ip), vehicle: other 105 % of control | dose: 100.0 mg/kg/injection, schedule: Q04DX003 (ip), vehicle: other 112 % of control | dose: 200.0 mg/kg/injection, schedule: Q04DX003 (ip), vehicle: other 112 % of control | dose: 400.0 mg/kg/injection, schedule: Q04DX003 (ip), vehicle: other 91 % of control

CCCCNC(C)(C)C(SS)c1ccc(Cl)cc1 (configuration not stated)
inactive: dose: 50.0 mg/kg/injection, schedule: Q01DX009 (ip), vehicle: Klucel (hydroxypropylcellulose) (HPC) 100 % of control | dose: 100.0 mg/kg/injection, schedule: Q01DX009 (ip), vehicle: Klucel (hydroxypropylcellulose) (HPC) 115 % of control | [10] 95 % of control | dose: 200.0 mg/kg/injection, schedule: Q01DX009 (ip), vehicle: Klucel (hydroxypropylcellulose) (HPC) 105 % of control | [11] 100 % of control

O=S(O)OS(=O)O
inactive: dose: 90.0 mg/kg/injection, schedule: Q01DX009 (ip), vehicle: saline 105 % of control | [2] 100 % of control | [3] 96 % of control | dose: 133.0 mg/kg/injection, schedule: Q01DX009 (ip), vehicle: saline 95 % of control and 100 % of control | [4] 100 % of control and 116 % of control | [5] 92 % of control | dose: 400.0 mg/kg/injection, schedule: Q01DX009 (ip), vehicle: saline 104 % of control | [6] 96 % of control

CCS(=O)(=O)OCCCCOS(=O)(=O)CC
inactive: [12] 108 % of control

CC(=O)CC(=O)NC1CCCCC1
inactive: [12] 100 % of control | dose: 200.0 mg/kg/injection, schedule: Q01DX009 (ip), vehicle: saline with Tween-80 100 % of control | dose: 400.0 mg/kg/injection, schedule: Q01DX009 (ip), vehicle: saline with Tween-80 100 % of control

O=C(/C=N/O)Nc1cc(Cl)c(Cl)cc1Cl
inactive: [9] 109 % of control | dose: 50.0 mg/kg/injection, schedule: Q04DX003 (ip), vehicle: saline with Tween-80 109 % of control | dose: 75.0 mg/kg/injection, schedule: Q01DX009 (ip), vehicle: saline with Tween-80 113 % of control | [12] 104 % of control | [13] 100 % of control | dose: 150.0 mg/kg/injection, schedule: Q01DX009 (ip), vehicle: saline with Tween-80 118 % of control | dose: 200.0 mg/kg/injection, schedule: Q04DX003 (ip), vehicle: saline with Tween-80 122 % of control

c1cnc2[nH]cnc2n1
inactive: [2] 95 % of control | [3] 100 % of control | [4] 95 % of control | [5] 100 % of control | [6] 90 % of control

OCc1cc2ccccc2cc1O
inactive: [10] 90 % of control | [11] 109 % of control | dose: 400.0 mg/kg/injection, schedule: Q04DX003 (ip), vehicle: Klucel (hydroxypropylcellulose) (HPC) 104 % of control

NCCc1c[nH]c2ccc(F)cc12
inactive: dose: 12.5 mg/kg/injection, schedule: Q01DX009 (ip), vehicle: saline 91 % of control | dose: 25.0 mg/kg/injection, schedule: Q01DX009 (ip), vehicle: saline 98 % of control | [1] 98 % of control | [2] 91 % of control

COc1cccc(OC)c1C(c1c(OC)cccc1OC)c1c(OC)cccc1OC
inactive: dose: 6.25 mg/kg/injection, schedule: Q01DX009 (ip), vehicle: saline with Tween-80 115 % of control | [7] 100 % of control | [8] 109 % of control | dose: 25.0 mg/kg/injection, schedule: Q04DX003 (ip), vehicle: saline with Tween-80 104 % of control | [12] 120 % of control | [13] 116 % of control

CC1(C)OC2(C)CCC1C(O)C2N1CCCCC1 (configuration not stated)
inactive: dose: 50.0 mg/kg/injection, schedule: Q01DX005 (ip), vehicle: saline with Tween-80 108 % of control | dose: 100.0 mg/kg/injection, schedule: Q01DX005 (ip), vehicle: saline with Tween-80 95 % of control | dose: 200.0 mg/kg/injection, schedule: Q01DX005 (ip), vehicle: saline with Tween-80 106 % of control
